Results: patent US20100317604A1, “FORSYTHIASIDE INJECTION PREPARATION AND PREPARATIVE METHOD THEREOF” (Shanghai Youseen New Medicine Exploition Co., Ltd, priority 2006, published 2010)

Experiment: Choice of the pH value (HPLC peak area of Forsythiaside)
Assay type: physicochemical
Settings: for Peak Area: HPLC peak area of Forsythiaside in water
Description: Taking appropriate amount of Forsythiaside, adding water to it for dissolution. Adjusting the pH value to 3.0, 3.5, 4.0, 4.5, 5.0, 5.5, 6.0 separately, then determining the peak area value of Forsythiaside at different pH value by HPLC to investigate the influence on the content of Forsythiaside caused by different pH value.

In the case of Forsythiaside, the “Peak Area” value (pH Value 3.0) is reported as 1410.0, the “Peak Area” value (pH Value 3.5) is reported as 1499.0 and the “Peak Area” value (pH Value 4.0) is reported as 1519.8. For the same substance, the “Peak Area” value (pH Value 4.5) was 1523.1, the “Peak Area” value (pH Value 5.0) was 1494.5 and the “Peak Area” value (pH Value 5.5) was 1480.6. For the same substance, the “Peak Area” value (pH Value 6.0) was 1423.5, the “content of Forsythiaside at different pH value” (pH value 3.0-6.0) was “not sufficiently varied” and the “content of Forsythiaside at different pH value” (pH value 4.5) was “highest content”.
